Source: US9648880B2, “Antifungal agents and uses thereof” (University of Massachusetts, priority 2012, dated 2017)
“Also recorded” adds a separate entry of the source.

How the values were obtained:
Format in all cases: cell-based, Candida albicans
[1] = system: C. albicans adherence to human lung epithelial A549 cells; test: epithelial cell binding assay; settings: 25 μM; 37° C., 90 min
From the text: In addition to experiments with inert surfaces, we also tested how the candidate compounds would affect C. albicans adherence to human cells, measuring binding of Green Fluorescent Protein (GFP)-encoding C. albicans cells to monolayers of human lung epithelial A549 cells, which are an effective substrate for Candida adhesion (Kitamura, Antimicrob Agents Chemother. 53: 3963-3971, 2009). […] We conclude that compound #4 is not toxic to this human cell line under our assay concentrations, but can impair fungal adhesion both to inert surfaces and to cultured human epithelial cells.
Human lung epithelial A549 cells (Giard, 1973) were grown to confluence on Nunc 48 well plates in RPMI+10% FBS and Penicillin/Streptomycin. Media was decanted and plates were carefully washed 3 times with PBS to remove unbound cells. Pre-grown overnight cultures of SC5314-GFP and edt1^−/−-GFP C. albicans cells were resuspended in fresh SC+0.2% glucose at 0.5 OD/ml and 250 μl of yeast suspension were plated onto to each well. Following incubation at 37° C. for 1.5 hours, media was decanted, and the monolayers were washed carefully 3 times with 250 μl PBS. Fluorescence from bound yeast was measured (485 Ex/535 Em) using the Synergy HT plate reader (BioTek) after addition of 100 μl PBS/well.

C. albicans SC5314 = test: alamarBlue-based polystyrene adhesion assay; settings: for C. albicans adhesion to polystyrene: 25 μM
From the text: We prioritized the candidate compounds by testing the dose-dependence of their effects. Because of the laborious washing required to remove background crystal violet dye staining, we developed adhesion assays using alternative detection reagents. Previous experiments screens have used the vital dye alamarBlue to measure Candida viability (Lafleur, J. Antimicrob Chemother. 66: 820-826, 2011; Youngsaye supra), so we tested this reagent as a way to measure cells remaining adhered after washing. […] The majority of the reordered compounds were effective at reducing Candida adhesion at 50 μM, the concentration originally tested during the screen. […] Although compounds that were still effective at 25 μM were less generally less so at 7.5 μM (FIG. 1C), many candidates still reduced adhesion by >50% at this lower concentration.
Overnight cultures of SC5314 and edt1^−/− cells were grown and plated onto Immulon 2HB 96-well microtiter plates and treated with small molecules as described above. Following incubations, media was decanted and plates were washed twice with 100 μl/well PBS. alamarBlue (Life Technologies) was resuspended to a final concentration of 5% in RPMI buffered with 0.165 M MOPS and then 100 μl was added to each well, followed by further incubation for 2 hours at 37° C. Fluorescence signals at 555Ex/585Em were read using a SpectraMax M5 Plate reader (Molecular Devices).

[2] = system: C. albicans SC5314-GFP biofilm; test: biofilm formation on silicone elastomers; settings: for dry weight of biofilm / biofilm formation, visual inspection: 50 μM, 60 hrs; for biofilm formation, visual inspection: silicone mesh
Experimental: FIGS. 5A-5C. Effect of small molecules on biofilm formation in vitro. FIG. 5A is a series of photographs showing biofilm formation on silicone elastomers. Biofilm assay was performed with SC5314-GFP and edt1^Δ/Δ-GFP and photographed after 60 hrs. Indicated compounds were added at 50 μM. Turbid medium indicates planktonic cells unattached to silicone elastomers when biofilm formation is inhibited. Clear medium with the cell attached to the silicone elastomer indicate establishment of functional biofilm. Each treatment was done in triplicate. FIG. 5B is a graph showing quantitation of turbidity of medium. Media was removed from the wells, vortexed vigorously and the OD at 600 nm was measured in a spectrophotometer. FIG. 5C is a graph showing quantitation of dry weight of biofilm. Dry weight in mg of air-dried silicone elastomers.
Fungal biofilm formation on implanted medical devices is a serious medical problem because these biofilms can lead to life-threatening systemic infections. An established in vitro assay to study device colonization makes use of silicone mesh as a surrogate surface (Nobile, 2006). We tested how the compounds that affected polystyrene adhesion (FIG. 1) would affect biofilm formation by visual inspection of the biofilms formed, by measuring the optical density of the supernatant liquid cultures, and by measuring their dry weights. […] Therefore, compounds #4 and Q1 were effective inhibitors of both hyphal morphogenesis (FIG. 4) and biofilm formation on silicone mesh (FIG. 5).
We adapted a published method (Nobile, 2006, supra). Autoclaved, pre-weighed silicone mesh squares (Bentec, Catalog Number PR72034-04N) were incubated overnight at 37° C. with undiluted bovine serum. Following washing with PBS, the squares were transferred to 12-well plates and incubated with 0.5 OD/ml SC5314-GFP cells in Spider medium (with or without drugs as indicated), for 90 min at 37° C., shaking at 200 rpm. Squares were washed in PBS and transferred to new 12-well plates containing fresh Spider medium with fresh drugs and incubated for 60 hrs in a 37° C. shaker at 200 rpm. The plates were then photographed, the liquid media were collected for A600 nm measurements, and the dry weights of the bound biofilms were measured following drying of the silicone squares in a chemical hood.

C. albicans = test: pretreatment (pre-coating) of polystyrene, then adhesion assay
Experimental: FIGS. 11A-11D. Compound #4 can coat surfaces and reduce subsequent fungal adhesion. […] is a graph showing the results of pretreatment of polystyrene with candidate compounds. Indicated compounds at 50 μM were incubated in polystyrene 96-well plates overnight. Wells were washed three times with 100 μl of PBS. C. albicans adhesion was then measured using the vital dye alamarBlue, with no additional drug treatment. FIG. 11B is a graph showing titration of compounds #1, 4 and 9 for pre-binding to polystyrene. Indicated concentrations of compounds were pre-incubated with polystyrene plates as above prior to the adhesion assays. FIG. 11C is a graph showing the inhibition of adhesion by pretreatment of C. albicans SC5314 cells with compound #4 prior to introduction to plastic. SC5314 cells were treated with 25 μM compound #4 or DMSO in liquid culture prior to their introduced into polystyrene plates. Cells were washed with PBS prior to resuspension into SCM and seeding into 96-well plates for adhesion assays using alamarBlue detection of remaining cells. The pretreated cells were assayed alongside a standard adhesion assay in which compound #4 and the cells were coincubated with the plastic simultaneously. FIG. 11D is a graph showing the results of an assay performed as in FIG. 11C, except that SC5314-GFP cells were used, and then detected via fluorescence measurement. edt1 indicates non-adherent mutant cells, PBS indicates background fluorescence in absence of cells.
Because compounds #4 and #9 contain a nitrophenyl group (FIG. 3A), solutions containing these appear yellow. […] To test this idea, we preincubated polystyrene plates with each of the compounds that affect adhesion to polystyrene, washed to remove unbound compound molecules, and then added C. albicans cells to measure adhesion without further addition of compound.
To distinguish the three pre-coating compounds, we then titrated them in this pre-coating assay (FIG. 11B). […] We also tested whether compound #4 could affect fungal adhesion when it was used to pre-coat C. albicans cells rather than the polystyrene surface. […] We conclude that compound #4 has the ability to make polystyrene and the C. albicans cell surface less amenable to subsequent adhesion.

SMILES	inhibition of C. albicans adhesion to human A549 cells [1]	C. albicans adhesion to polystyrene (C. albicans SC5314)	synergy on adhesion upon combining compound #4 and compound #12 (C. albicans SC5314; #4 1.5 μM with #12 4 and 6 μM)	effect on adhesion of compound alone (C. albicans SC5314; compound #4 1.5 μM, compound #12 4 and 6 μM)	dry weight of biofilm [2]	biofilm formation, visual inspection [2]	biofilm formation on silicone mesh ([2]; Example 14)	subsequent adhesion of C. albicans to pre-coated polystyrene (C. albicans; 12.5 μM or below)	subsequent adhesion of C. albicans to pre-coated polystyrene (C. albicans; 25 μM)	subsequent adhesion of C. albicans to pre-coated polystyrene (C. albicans; 50 μM, overnight, washed)
Cc1ccc(C(=O)N2CCN(c3ccc([N+](=O)[O-])cc3)CC2)cc1Cl [Compound 4]	by far the strongest inhibitor of adhesion to human epithelial cells; also recorded: strongly inhibited	effective adhesion inhibitors	did not further reduce adhesion	partial effects	most effective at reducing biofilm formation	most effectively kept the cells dispersed in the media rather than on the mesh	effective inhibitors of both hyphal morphogenesis and biofilm formation on silicone mesh	much less so	strongly inhibitory	efficiently inhibited subsequent adhesion
O=C(c1ccc(Cl)c(Cl)c1)N1CCN(c2ccc([N+](=O)[O-])cc2)CC1 [Compound 9]	not #9 effectively inhibited human cell binding	effective adhesion inhibitors	–	–	most effective at reducing biofilm formation	most effectively kept the cells dispersed in the media rather than on the mesh	–	much less so	strongly inhibitory	efficiently inhibited subsequent adhesion
